Data taken from patent US20070264679A1, “Method for analyzing the activity of lipoxygenase using a water-soluble substrate” (Chungnam National University Industry Collaboration …, priority 2006, published 2007).

Assays:
[1] = biological target: T1, Leukocyte 12-lipoxygenase (leukocyte LOX) (Sus scrofa, UniProt P16469); assay: Kinetics of oxygenation of arachidonic acid or arachidonoyl-lysophospholipids by leukocyte LOX; assay type: biochemical, porcine; conditions: for Vm: 0.03% Tween 20
T1 construct: purchased Cayman Chemical Co. (Ann Arbor, Mich., USA)
T1 sequence (P16469 1-663): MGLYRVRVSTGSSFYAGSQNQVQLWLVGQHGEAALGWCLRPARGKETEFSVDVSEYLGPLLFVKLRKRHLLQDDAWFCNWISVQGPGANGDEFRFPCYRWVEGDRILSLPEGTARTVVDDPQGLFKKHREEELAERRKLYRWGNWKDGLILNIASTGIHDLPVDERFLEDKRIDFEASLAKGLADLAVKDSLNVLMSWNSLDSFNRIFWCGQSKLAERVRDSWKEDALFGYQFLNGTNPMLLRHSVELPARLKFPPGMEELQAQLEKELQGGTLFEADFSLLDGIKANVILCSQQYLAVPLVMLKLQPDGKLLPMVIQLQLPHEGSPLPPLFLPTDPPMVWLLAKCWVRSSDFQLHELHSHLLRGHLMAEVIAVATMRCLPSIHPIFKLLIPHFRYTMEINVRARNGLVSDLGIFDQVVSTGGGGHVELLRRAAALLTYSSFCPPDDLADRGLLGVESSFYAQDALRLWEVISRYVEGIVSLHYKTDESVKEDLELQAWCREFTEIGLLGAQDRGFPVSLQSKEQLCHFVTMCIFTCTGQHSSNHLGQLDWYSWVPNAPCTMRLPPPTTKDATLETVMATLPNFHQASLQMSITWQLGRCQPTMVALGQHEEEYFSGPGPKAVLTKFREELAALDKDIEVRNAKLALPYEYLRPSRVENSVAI
Protocol: (§1) Activities of various LOXs were monitored by measuring the increase in absorbance at 234 nm due to the formation of hydroperoxide (ε234=25,000 M^−1 cm^−1) at 25° C. as described before (Smith et al, J. Biol. Chem. 247 (1972) 1038-1047). One unit is defined as the amount of LOXs that can produce one nanomole of conjugated diene per min. The reaction mixture (500 μl) included reticulocyte LOX (2 units/ml) in 50 mM phosphate buffer (pH 7.4), porcine leukocyte LOX (1 unit/ml) in 100 mM phosphate buffer (pH 7.5) containing 5 mM EDTA and 0.03% Tween 20, or soybean LOX-1 (2.5 units/ml) in 50 mM borax buffer (pH 9.0) at 25° C. The reactions were started by including each substrate (100 μM) into the above reaction mixture.
(§2) Reticulocyte LOX (2 units/ml), leukocyte LOX (1 units/ml) or soybean LOX-1 (2.5 units/ml) was incubated with each arachidonoyl derivative substrate of various concentrations as described above. The values of kinetic parameters were obtained according to Lineweaver Burke plot analyses as described before (Barroso et al, J. Chromatogr. B. Analyt. Technol. Biomed. Life. Sci. 814 (2005) 21-28).

soybean LOX-1 = biological target: T2, soybean LOX-1 (Glycine max, UniProt P08170); assay: Kinetics of oxygenation of arachidonic acid or arachidonoyl-lysophospholipids by soybean LOX-1; assay type: biochemical; conditions: soybean LOX-1 2.5 units/ml; for Km: 50 mM borax buffer pH 9.0, 25° C.; for Vm: 50 mM borax buffer pH 9.0, unit = one nanomole conjugated diene per min
T2 construct: purchased Sigma-Aldrich Corp (St. Louis, Mo., USA) lipoxidase Type I-B
T2 sequence (P08170 1-839): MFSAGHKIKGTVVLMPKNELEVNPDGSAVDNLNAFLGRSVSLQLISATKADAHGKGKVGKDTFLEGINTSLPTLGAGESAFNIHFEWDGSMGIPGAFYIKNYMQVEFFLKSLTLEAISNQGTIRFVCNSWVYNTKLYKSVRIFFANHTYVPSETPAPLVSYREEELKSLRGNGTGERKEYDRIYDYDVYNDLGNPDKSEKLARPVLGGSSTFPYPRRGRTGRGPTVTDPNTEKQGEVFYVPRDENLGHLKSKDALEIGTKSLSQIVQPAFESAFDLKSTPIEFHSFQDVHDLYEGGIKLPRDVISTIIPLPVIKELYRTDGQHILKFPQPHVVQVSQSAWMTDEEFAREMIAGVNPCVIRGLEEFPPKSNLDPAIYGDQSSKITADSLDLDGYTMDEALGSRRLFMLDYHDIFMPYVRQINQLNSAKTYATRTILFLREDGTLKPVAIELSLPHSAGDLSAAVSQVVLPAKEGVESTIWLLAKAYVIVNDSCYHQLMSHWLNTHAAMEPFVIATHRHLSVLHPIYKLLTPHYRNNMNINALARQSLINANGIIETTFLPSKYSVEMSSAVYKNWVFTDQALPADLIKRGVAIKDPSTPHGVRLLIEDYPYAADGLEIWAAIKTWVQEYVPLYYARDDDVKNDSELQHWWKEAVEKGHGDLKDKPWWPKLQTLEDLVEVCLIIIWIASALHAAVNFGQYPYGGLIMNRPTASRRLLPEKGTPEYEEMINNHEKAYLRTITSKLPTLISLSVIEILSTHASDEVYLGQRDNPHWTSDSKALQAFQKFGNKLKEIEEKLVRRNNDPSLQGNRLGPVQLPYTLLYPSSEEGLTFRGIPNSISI
Protocol: as §1, §2

SMILES: CCCCC/C=C\C/C=C\C/C=C\C/C=C\CCCC(=O)OCC(O)COP(=O)([O-])OCC[N+](C)(C)C (centres unmarked) [Arachidonoyl-lysoPC, 1-Arachidonoyl lysophosphatidylcholine]
- efficacy as a substrate for leukocyte LOX (Vm/Km) relative to arachidonic acid ([1]; greater than that of arachidonic acid): approximately 10 fold
- Vm ([1]; leukocyte LOX 1 unit/ml, 100 mM phosphate buffer pH 7.5, 5 mM EDTA): 199.8 ± 16.7 units/mg
- Km ([1]; leukocyte LOX 1 unit/ml, 100 mM phosphate buffer pH 7.5, 5 mM EDTA, 0.03% Tween 20, 25° C.): 2.6 µM
- Vm ([1]; leukocyte LOX 1 unit/ml, 100 mM phosphate buffer pH 7.5, 5 mM EDTA, listed as arachidonoyl-lysoPC): 199.8 units/mg
- Km (soybean LOX-1): 5.37 ± 1.6 µM
- Km (soybean LOX-1; listed as arachidonoyl-lysoPC): 5.4 µM
- Vm (soybean LOX-1): 97.0 ± 8.2 units/μg
- Vm (soybean LOX-1; listed as arachidonoyl-lysoPC): 97.0 units/μg
